Experimental data from US10294234B2, “HIV inhibitor compounds” (priority 2017, dated 2019).
Where two headings read alike, the source gives them in different places.

Tests used:
[1] = How it was run: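 LC/MS/MS read-out of parent compound remaining; in vitro t1/2 converted to Clint. Incubation: 1 uM compound, 0.5 mg/mL dog/rat/human liver microsomes, NADPH-regenerating system, duplicate sets, time-points 2–65 minutes.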
[2] = test system: HIV-1 (IIIB) in MT-4 cells; assay: MT-4 HIV assay; type: cell-based
How it was run: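 Antiviral activity was read by Cell Titer Glo after a 5-day, 37 °C culture of MT-4 cells pre-infected with a 1:250 dilution of HIV-1 (IIIB). Compounds were tested as threefold dilution series in complete RPMI. Controls were no drug, mock infection and 5 uM AZT.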

[3] = 3H Human Predicted Clearance Assay (tritiated analogs); type: in vitro ADME; set-up: unit not given here
Description: 3H Human Predicted Clearance Assay:
For certain compounds, tritiated analogs (H^3) were prepared to further determined their human predicted clearance with increased resolution. Those studies were performed as described above using the tritiated analogs. Data from those compounds is found in Table 2 below and reported in FIG. 1 (note ATV and DRV were not tritiated).

in vivo [4] = conditions: rat, in vivo; for Vd / RAT PO F: male, SD; for Vd / RAT IV CL / RAT IV T1/2: iv; for RAT PO F: 2.5 mg/kg
Description: Each dosing group consisted of 3 male naïve SD Rats. At dosing, the animals weighed between 0.27 to 0.32 kg. The animals were fasted overnight prior to dose administration. The test article was administered by intravenous infusion over 30 min. The rate of infusion was adjusted according to the body weight of each animal to deliver a dose of 0.5 or 1.0 mg/kg. For the oral dosing group, the test article was administered to animals by oral gavage administration. Serial venous blood samples (approximately 0.30 mL each) were taken at predose and 0.25, 0.48, 0.58, 0.75, 1.5, 3, 6, 8, 12 and 24 hours post dose for the IV dosing group animals. Blood samples were taken at predose, 0.25, 0.50, 1, 2, 4, 6, 8, 12 and 24 hours post dose for the oral group animals. The blood samples were collected into Vacutainer™ tubes containing EDTA-K2 as the anti-coagulant and were immediately placed on wet ice pending centrifugation for plasma. An LC/MS/MS method was used to measure the concentration of test compound in plasma. Non-compartmental pharmacokinetic analysis was performed on the plasma concentration-time data.

in vivo [5] = assay: in vivo
Description: Pharmacokinetic Profiling Dog PK
Each dosing group consisted of three non-naïve male beagle dogs. At dosing, the animals weighed between 9 to 12 kg. The animals were fasted overnight prior to dose administration and up to four hours after dosing. The test article was administered by intravenous infusion over 30-minutes. The rate of infusion was adjusted according to the body weight of each animal to deliver a dose of 0.5 or 1.0 mg/kg. For the oral dosing group, the test article was administered by oral gavage at a dose volume of 2 mL/kg.
Serial venous blood samples (approximately 1.0 mL each) were collected at predose and 0.25, 0.48, 0.58, 0.75, 1.0, 1.5, 2, 4, 8, 12 and 24 hours post dose from each animal for the IV dosing group; blood samples were collected at predose, 0.25, 0.50, 1, 2 4, 6, 8,12 and 24 hours post dose for the oral dosing group. The blood samples were collected into Vacutainer™ tubes containing EDTA-K2 as the anti-coagulant and were immediately placed on wet ice pending centrifugation for plasma. An LC/MS/MS method was used to measure the concentration of test compound in plasma. Non-compartmental pharmacokinetic analysis was performed on the plasma concentration-time data. VSS=apparent volume of distribution, t1/2=half life, F=oral bioavailability.

[6] = human liver microsomes 0.5 mg/mL, 1 uM compound, NADPH
[7] = rat liver microsomes 0.5 mg/mL, 1 uM compound, NADPH
[8] = Human immunodeficiency virus 1, MT4, 120 h, HIV-1 (IIIB), MT-4 cells, 5 days, Cell Titer Glo, read-out: EC50
[9] = tritiated analogs, human liver microsomes

| Molecule | Human Pred Cl. [1, 6] [L/H/kg] | Rat. Pred. Cl. [1, 7] [L/H/kg] | EC50 [2, 8] [nM] | 3H Human Predicted Cl. [3, 9] | Human Pred Cl. ([1]; human, microsomes) [L/H/kg] | Rat. Pred. Cl. ([1]; rat, microsomes) [L/H/kg] | 3H Human Predicted Cl. ([3]; human, 1 uM) | further results |
| --- | --- | --- | --- | --- | --- | --- | --- | --- |
| COC(=O)N[C@H](C(=O)N[C@@H](Cc1ccc(C#Cc2cnc(N3CCN(C4COC4)CC3)nc2)cc1)[C@@H](O)CN(Cc1c(F)cc(-c2ncccn2)cc1F)NC(=O)[C@@H](NC(=O)OC)C(C)(C)C(F)(F)F)C(C)(C)C(F)(F)F [Example 88, Methyl ((5S,8S,9S,14S)-11-(2,6-difluoro-4-(pyrimidin-2-yl)benzyl)-16,16,16-trifluoro-9-hydroxy-15,15-dimethyl-8-(4-((2-(4-(oxetan-3-yl)piperazin-1-yl)pyrimidin-5-yl)ethynyl)benzyl)-3,6,13-trioxo-5-(1,1,1-trifluoro-2-methylpropan-2-yl)-2-oxa-4,7,11,12-tetraazahexadecan-14-yl)carbamate] | <0.11 | <0.18 | 4.57 | 0.08 | – | – | – | Dog. Pred. Cl. ([1]; dog liver microsomes 0.5 mg/mL, 1 uM compound, NADPH): 1.63 L/H/kg |
| Methyl ((5S,8S,9S,14S)-11-(4-(1-(difluoromethyl)-1H-pyrazol-3-yl)-2,6-difluorobenzyl)-16,16,16-trifluoro-9-hydroxy-15,15-dimethyl-8-(4-((6-(4-(oxetan-3-yl)piperazin-1-yl)pyridin-3-yl)ethynyl)benzyl)-3,6,3-trioxo-5-(1,1,1-trifluoro-2-methylpropan-2-yl)-2-oxa-4,7,11,12-tetraazahexadecan-14-yl)carbamate [Example 112] | <0.11 | 0.32 | – | 0.11 | – | – | – | EC50 ([2]; HIV-1 (IIIB), MT-4 cells, 5 days, Cell Titer Glo, read-out: EC50): 4.45 nM |
| COC(=O)N[C@H](C(=O)N[C@@H](Cc1ccc(-c2ccc(N3CC4CCC(C3)N4C3COC3)nc2)cc1)[C@@H](O)CN(Cc1c(F)cc(-c2ccn(C(F)F)n2)cc1F)NC(=O)[C@@H](NC(=O)OC)C(C)(C)C(F)(F)F)C(C)(C)C(F)(F)F [Example 208, Methyl ((5S,8S,9S,14S)-11-(4-(1-(difluoromethyl)-1H-pyrazol-3-yl)-2,6-difluorobenzyl)-16,16,16-trifluoro-9-hydroxy-15,15-dimethyl-8-(4-(6-(8-(oxetan-3-yl)-3,8-diazabicyclo[3.2.1]octan-3-yl)pyridin-3-yl)benzyl)-3,6,13-trioxo-5-(1,1,1-trifluoro-2-methylpropan-2-yl)-2-oxa-4,7,11,12-tetraazahexadecan-14-yl)carbamate] | – | – | 2.51 | – | 0.16 | 0.74 | 0.11 | – |
| COC(=O)N[C@H](C(=O)N[C@@H](Cc1ccc(C#Cc2cnc(N3CC4CCC(C3)N4C3COC3)c(C)c2)cc1)[C@@H](O)CN(Cc1c(F)cc(-c2cnn(C(F)F)c2)cc1F)NC(=O)[C@@H](NC(=O)OC)C(C)(C)C(F)(F)F)C(C)(C)C(F)(F)F [Example 153, Methyl ((5S,8S,9S,14S)-11-(4-(1-(difluoromethyl)-1H-pyrazol-4-yl)-2,6-difluorobenzyl)-16,16,16-trifluoro-9-hydroxy-15,15-dimethyl-8-(4-((5-methyl-6-(8-(oxetan-3-yl)-3,8-diazabicyclo[3.2.1]octan-3-yl)pyridin-3-yl)ethynyl)benzyl)-3,6,13-trioxo-5-(1,1,1-trifluoro-2-methylpropan-2-yl)-2-oxa-4,7,11,12-tetraazahexadecan-14-yl)carbamate] | – | – | – | – | – | – | 0.43 | – |
| COC(=O)N[C@H](C(=O)N[C@@H](Cc1ccc(C#Cc2ccc(N3CC4CCC(C3)N4C3COC3)nc2)cc1)[C@@H](O)CN(Cc1ccc(-c2cnn(C(F)F)c2)cc1)NC(=O)[C@@H](NC(=O)OC)C(C)(C)C(F)(F)F)C(C)(C)C(F)(F)F [Example 63, Methyl ((5S,8S,9S,14S)-11-(4-(1-(difluoromethyl)-1H-pyrazol-4-yl)benzyl)-16,16,16-trifluoro-9-hydroxy-15,15-dimethyl-8-(4-((6-(8-(oxetan-3-yl)-3,8-diazabicyclo[3.2.1]octan-3-yl)pyridin-3-yl)ethynyl)benzyl)-3,6,13-trioxo-5-(1,1,1-trifluoro-2-methylpropan-2-yl)-2-oxa-4,7,11,12-tetraazahexadecan-14-yl)carbamate] | – | – | 4.25 | – | <0.11 | 0.2 | – | Dog. Pred. Cl. ([1]; dog, microsomes): 0.86 L/H/kg; Vd (in vivo [4]): 5.46 L/kg; RAT PO F (in vivo [4]): 19%; RAT IV CL (in vivo [4]): 7 mL/min/kg; RAT IV T1/2 (in vivo [4]): 11.9 h; DOG IV CL (in vivo [5]; dog, in vivo, iv): 4.67 mL/min/kg; DOG IV T1/2 (in vivo [5]; male beagle dogs, IV infusion over 30 minutes, 0.5 or 1.0 mg/kg): 8.16 h; Vd (in vivo [5]; male, beagle, dog, in vivo, iv): 2.4 L/kg |
| COC(=O)N[C@H](C(=O)N[C@@H](Cc1ccc(C#Cc2ccc(N3CC4CC(C3)N4C3COC3)nc2)cc1)[C@@H](O)CN(Cc1c(F)cc(-c2ccn(C(F)F)n2)cc1F)NC(=O)[C@@H](NC(=O)OC)C(C)(C)C(F)(F)F)C(C)(C)C(F)(F)F [Example 176, Methyl ((5S,8S,9S,14S)-11-(4-(1-(difluoromethyl)-1H-pyrazol-3-yl)-2,6-difluorobenzyl)-16,16,16-trifluoro-9-hydroxy-15,15-dimethyl-8-(4-((6-(6-(oxetan-3-yl)-3,6-diazabicyclo[3.1.1]heptan-3-yl)pyridin-3-yl)ethynyl)benzyl)-3,6,13-trioxo-5-(1,1,1-trifluoro-2-methylpropan-2-yl)-2-oxa-4,7,11,12-tetraazahexadecan-14-yl)carbamate] | – | – | 3.36 | – | <0.11 | 0.75 | 0.09 | – |
| COC(=O)N[C@H](C(=O)N[C@@H](Cc1ccc(C#Cc2ccc(N3C[C@H]4C[C@@H]3CN4C3COC3)nc2)cc1)[C@@H](O)CN(Cc1c(F)cc(-c2ccn(C(F)F)n2)cc1F)NC(=O)[C@@H](NC(=O)OC)C(C)(C)C(F)(F)F)C(C)(C)C(F)(F)F [Example 173, Methyl ((5S,8S,9S,14S)-11-(4-(1-(difluoromethyl)-1H-pyrazol-3-yl)-2,6-difluorobenzyl)-16,16,16-trifluoro-9-hydroxy-15,15-dimethyl-8-(4-((6-((1R,4R)-5-(oxetan-3-yl)-2,5-diazabicyclo[2.2.1]heptan-2-yl)pyridin-3-yl)ethynyl)benzyl)-3,6,13-trioxo-5-(1,1,1-trifluoro-2-methylpropan-2-yl)-2-oxa-4,7,11,12-tetraazahexadecan-14-yl)carbamate] | <0.11 | 1.2 | – | 0.14 | – | – | – | EC50 ([2]; Human immunodeficiency virus 1, MT4, 120 h): 2.55 nM |
| COC(=O)N[C@H](C(=O)N[C@@H](Cc1ccc(C#Cc2ccc(N3CC4COCC(C3)N4C3COC3)nc2)cc1)[C@@H](O)CN(Cc1c(F)cc(-c2ccn(C(F)F)n2)cc1F)NC(=O)[C@@H](NC(=O)OC)C(C)(C)C(F)(F)F)C(C)(C)C(F)(F)F [Example 180, Methyl ((5S,8S,9S,14S)-11-(4-(1-(difluoromethyl)-1H-pyrazol-3-yl)-2,6-difluorobenzyl)-16,16,16-trifluoro-9-hydroxy-15,15-dimethyl-8-(4-((6-(9-(oxetan-3-yl)-3-oxa-7,9-diazabicyclo[3.3.1]nonan-7-yl)pyridin-3-yl)ethynyl)benzyl)-3,6,13-trioxo-5-(1,1,1-trifluoro-2-methylpropan-2-yl)-2-oxa-4,7,11,12-tetraazahexadecan-14-yl)carbamate] | – | – | 3.69 | – | <0.11 | <0.18 | – | Vd (in vivo [4]): 0.52 L/kg; RAT PO F (in vivo [4]): 4.29%; RAT IV CL (in vivo [4]): 6.5 mL/min/kg; RAT IV T1/2 (in vivo [4]): 2.81 h |
